Laboratory results: ChEMBL document CHEMBL5030545, “Discovery of clinical candidate Sivopixant (S-600918): Lead optimization of dioxotriazine derivatives as selective P2X3 receptor antagonists” (Bioorg Med Chem Lett, 2021)

Key:
[1] = molecular target: T1, P2X purinoceptor 3 (Homo sapiens, UniProt P56373); test: Antagonist activity at P2X3 receptor (unknown origin)
T1 sequence (P56373 whole entry): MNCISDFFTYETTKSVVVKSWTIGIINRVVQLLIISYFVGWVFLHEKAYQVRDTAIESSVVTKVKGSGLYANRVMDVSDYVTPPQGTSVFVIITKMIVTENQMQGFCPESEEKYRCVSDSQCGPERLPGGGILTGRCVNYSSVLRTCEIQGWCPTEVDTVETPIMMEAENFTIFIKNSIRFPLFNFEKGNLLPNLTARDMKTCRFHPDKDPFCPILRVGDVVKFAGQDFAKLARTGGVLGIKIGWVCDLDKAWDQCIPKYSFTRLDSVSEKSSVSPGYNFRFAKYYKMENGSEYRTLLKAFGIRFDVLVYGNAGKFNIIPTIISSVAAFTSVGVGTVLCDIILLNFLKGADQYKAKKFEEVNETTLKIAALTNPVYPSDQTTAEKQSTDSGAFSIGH

[2] = Free plasma concentration in rat plasma at 1 mg/kg administered as cassette dose; format: ADME, organism-based; conditions: in vivo
[3] = Ratio of free plasma concentration in rat measured after 3 hrs to IC50 of P2X3 (unknown origin); format: ADME
[4] = Oral bioavailability in rat at 1 mg/kg administered as cassette dose; format: ADME, organism-based; conditions: in vivo
[5] = Ratio of plasma concentration in rat measured after 3 hrs to IC50 of P2X3 (unknown origin); format: ADME; conditions: in vivo
[6] = Protein binding in rat plasma assessed as unbound fraction at 1 mg/kg administered as cassette dose; format: ADME, organism-based
[7] = tested on: Rattus norvegicus; test: Analgesic activity in rat model of partial sciatic nerve ligation-induced neuropathic pain assessed as reversal of allodynia at 3 mg/kg, po measured after 3 hrs relative to control; format: functional

| Compound | IC50 [1] [nM] | Cp(f) [2] [nM] | Ratio [3] | bioavailability [4] [%] | Ratio [5] | fraction unbound [6] | Activity [7] [%] |
| --- | --- | --- | --- | --- | --- | --- | --- |
| CC(C)Oc1ccc(Nc2nc(=O)n(CCCO)c(=O)n2Cc2ccc(Cl)cc2)cc1Cl | 6.9 | 711 | 0.31 | 36.2 | 103.5 | 0.003 |  |
| CC(C)Oc1ccc(Nc2nc(=O)n(CC(CO)CO)c(=O)n2Cc2ccc(Cl)cc2)cc1Cl | 6.7 | 597 | 0.27 | 54.8 | 89.2 | 0.003 |  |
| CC(C)Oc1ccc(/N=c2\[nH]c(=O)n(C[C@@H](O)CO)c(=O)n2Cc2ccc(Cl)cc2)cc1Cl | 5.7 | 1627 | 0.28 | 63 | 284.5 | 0.001 |  |
| CC(C)Oc1ccc(/N=c2\[nH]c(=O)n(C[C@H](O)CO)c(=O)n2Cc2ccc(Cl)cc2)cc1Cl | 10.4 |  |  |  |  |  |  |
| CC(C)Oc1ccc(/N=c2\[nH]c(=O)n(C[C@@H](C)C(=O)O)c(=O)n2Cc2ccc(Cl)cc2)cc1Cl |  | 1001 | 0.12 | 108 | 62.2 | 0.002 |  |
| Cc1ccc(Cn2c(=O)n(C[C@H](C)C(=O)O)c(=O)[nH]/c2=N\c2ccc(OC(C)C)c(Cl)c2)cc1 |  | 692 | 1.38 | 73.1 | 98.9 | 0.014 | 3 |
| CC(C)Oc1ccc(/N=c2\[nH]c(=O)n(CC(C)(C)C(=O)O)c(=O)n2Cc2ccc(Cl)cc2)cc1Cl | 6.7 | 485 | 0.22 | 85.3 | 72.4 | 0.003 |  |
| Cc1ccc(Cn2c(=O)n(CC(C)(C)C(=O)O)c(=O)[nH]/c2=N\c2ccc(OC(C)C)c(Cl)c2)cc1 | 9.8 | 139 | 0.14 | 30.7 | 14.2 | 0.01 |  |
| Cc1cc(/N=c2\[nH]c(=O)n(C[C@H](C)C(=O)O)c(=O)n2Cc2ccc(Cl)cc2)ccc1OC(C)C |  | 924 | 1.16 | 102 | 57.8 | 0.02 | 13 |
| CC(C)Oc1ccc(/N=c2\[nH]c(=O)n(C[C@H](C)C(=O)O)c(=O)n2Cc2ccc(Cl)cc2)cc1Cl |  | 1537 | 0.52 | 82.4 | 171.8 | 0.003 | 26 |
| CC(C)Oc1ccc(Nc2nc(=O)n(CCO)c(=O)n2Cc2ccc(Cl)cc2)cc1Cl |  | 3095 | 0.2 | 48.1 | 204.9 | 0.001 |  |
| CC(C)Oc1ccc(/N=c2\[nH]c(=O)n(C[C@H](C)C(=O)O)c(=O)n2Cc2ccc(Cl)cc2)cc1F | 7.8 | 1126 | 1.31 | 96 | 145.2 | 0.009 | 23 |
| Cc1ccc(Cn2c(=O)n(CCCC(=O)O)c(=O)[nH]/c2=N\c2ccc(OC(C)C)c(Cl)c2)cc1 |  | 3655 | 0.59 | 108 | 294.8 | 0.002 | 20 |
| CC(C)Oc1ccc(Nc2nc(=O)n(CCC(=O)O)c(=O)n2Cc2ccc(Cl)cc2)cc1Cl |  | 1267 |  | 71.2 |  | 0.003 | 6 |
| CC(C)Oc1ccc(/N=c2\[nH]c(=O)n(CCCC(=O)O)c(=O)n2Cc2ccc(Cl)cc2)cc1Cl |  | 1600 | 0.24 | 43.2 | 119.4 | 0.002 |  |

Second part, led by results:

| IC50 [1] [nM] | Cp(f) [2] [nM] | Ratio [3] | bioavailability [4] [%] | Ratio [5] | fraction unbound [6] | Compound | Activity [7] [%] |
| --- | --- | --- | --- | --- | --- | --- | --- |
| 7.7 | 64 | 0.12 | 30.2 | 8.3 | 0.014 | C[C@@H](Cn1c(=O)[nH]/c(=N\c2ccc(Oc3cccnn3)cc2)n(Cc2ccc(Cl)cc2)c1=O)C(=O)O |  |
|  | 473 |  | 82.4 |  | 0.011 | C[C@@H](Cn1c(=O)[nH]/c(=N\c2ccc(Oc3ccc(F)cn3)cc2)n(Cc2ccc(Cl)cc2)c1=O)C(=O)O |  |
|  | 456 |  | 60 |  | 0.007 | C[C@@H](Cn1c(=O)[nH]/c(=N\c2ccc(Oc3cccc(F)n3)cc2)n(Cc2ccc(Cl)cc2)c1=O)C(=O)O |  |
| 4.9 | 240 | 0.2 | 40.2 | 48.9 | 0.004 | CC.C[C@@H](Cn1c(=O)[nH]/c(=N\c2ccc(Oc3cc(F)ccn3)cc2)n(Cc2ccc(Cl)cc2)c1=O)C(=O)O |  |
| 5.8 | 330 | 1.02 | 56.5 | 56.2 | 0.018 | C[C@@H](Cn1c(=O)[nH]/c(=N\c2ccc(Oc3cnccn3)cc2)n(Cc2ccc(Cl)cc2)c1=O)C(=O)O |  |
|  | 529 |  | 74.3 |  | 0.02 | C[C@@H](Cn1c(=O)[nH]/c(=N\c2ccc(Oc3cncc(F)c3)cc2)n(Cc2ccc(Cl)cc2)c1=O)C(=O)O |  |
|  | 643 | 0.79 | 45.6 | 37.6 | 0.021 | C[C@@H](Cn1c(=O)[nH]/c(=N\c2ccc(OCC3CC3)cc2)n(Cc2ccc(Cl)cc2)c1=O)C(=O)O |  |
| 8.6 |  |  |  |  |  | C[C@@H](Cn1c(=O)[nH]/c(=N\c2ccc(Oc3cccnc3)cc2)n(Cc2ccc(Cl)cc2)c1=O)C(=O)O |  |
|  | 462 | 0.46 | 54.3 | 30.4 | 0.015 | C[C@@H](Cn1c(=O)[nH]/c(=N\c2ccc(OC3CCC3)cc2)n(Cc2ccc(Cl)cc2)c1=O)C(=O)O |  |
|  | 319 |  | 41.4 |  | 0.006 | C[C@@H](Cn1c(=O)[nH]/c(=N\c2ccc(Oc3nccs3)cc2)n(Cc2ccc(Cl)cc2)c1=O)C(=O)O |  |
| 5.2 |  |  |  |  |  | C[C@@H](Cn1c(=O)[nH]/c(=N\c2ccc(Oc3ccncc3)cc2)n(Cc2ccc(Cl)cc2)c1=O)C(=O)O |  |
|  | 827 | 2.91 | 88.8 | 42.8 | 0.068 | CC(C)Oc1ccc(/N=c2\[nH]c(=O)n(C[C@H](C)C(=O)O)c(=O)n2Cc2ccc(Cl)cc2)cc1 | 2 |
|  | 253 | 0.29 | 48.7 | 11.5 | 0.025 | CC(C)COc1ccc(/N=c2\[nH]c(=O)n(C[C@H](C)C(=O)O)c(=O)n2Cc2ccc(Cl)cc2)cc1 |  |
